Data on 1 compound can be found in ChEMBL document CHEMBL1201862, “PubChem BioAssay data set” (2004).

Among the test systems are HCT-116; HCT-15; HOP-62; HT-29; Hs-578T; K562; MCF7; MDA-MB-435; NCI-H460; NCI/ADR-RES; OVCAR-5; OVCAR-8; PC-3; SF-539; SK-MEL-5; SK-OV-3; SN12C; SNB-19; SW-620; UACC-62.
Holding throughout (assay): NCI tumour cell line growth inhibition, 48 h

Molecules are shown by their SMILES.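 A five-concentration, 48-hour dose response in 96-well plates underlies each endpoint, interpolated linearly between surrounding concentrations. GI50: concentration for 50% inhibition of growth.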 The source made the active and inactive calls. Cut-off read from the data, not from the text of the source: active = GI50 up to about 1.1 µM and inactive = higher.

Turning to `C1=C\CCCCN2C[C@H]3CCCC/C=C\CCCCN4CC[C@@H]([C@H](CCCCCC/1)C4)[C@H](C3)C2`, the GI50 in the assay with HCT-116 is 2110 nM (inactive); in the assay with HCT-15 it was 1770 nM; with HOP-62, 2230 nM (inactive); with HT-29, 2070 nM (inactive); with Hs-578T, 2050 nM (inactive); in the assay on K562 it was 1470 nM (inactive). The GI50 with MCF7 is 1930 nM (inactive); in the assay on MDA-MB-435, 1860 nM (inactive); in the assay with NCI-H460, 1760 nM (inactive); with NCI/ADR-RES, 3120 nM (inactive); in the assay on OVCAR-5, 7500 nM (inactive); with OVCAR-8, 2840 nM (inactive). Also, the GI50 in the assay with PC-3 is 3120 nM (inactive); with SF-539, 1870 nM (inactive); in the assay with SK-MEL-5 it was 1610 nM (inactive); in the assay on SK-OV-3, 8090 nM (inactive); in the assay on SN12C, 10000 nM (inactive); with SNB-19, 2060 nM (inactive). The GI50 in the assay on SW-620 is 2440 nM (inactive); with UACC-62 it was 1870 nM (inactive).
